In the NIST ThermoML archive (doi:10.1021/acs.jced.9b00507):

Assay: xn = mol fraction of the nth substance listed
Settings: 100 kPa, Liquid; for viscosity: Concentric cylinders viscometry; for mass density: Vibrating tube method

CCCCCCn1cc[n+](C)c1.O=[N+]([O-])[O-] [1-hexyl-3-methylimidazolium nitrate] + CCCCCCO
Settings	mass density [kg/m3]	viscosity [mPa·s]
293.15 K, x1 = 0.0816	859	12.97
293.15 K, x1 = 0.1604	894.1	24.15
293.15 K, x1 = 0.2391	925.7	39.81
293.15 K, x1 = 0.3502	965.4	76.74
293.15 K, x1 = 0.4409	994.2	123.03
293.15 K, x1 = 0.5592	1027.7	207.01
293.15 K, x1 = 0.6508	1050.9	296.48
293.15 K, x1 = 0.7395	1071.2	414.95
293.15 K, x1 = 0.8502	1093.7	581.11
293.15 K, x1 = 0.9391	1110	707.52
293.15 K, x1 = 1	1120.3	804.17
298.15 K, x1 = 0.0816	855.2	8.79
298.15 K, x1 = 0.1604	890.1	14.35
298.15 K, x1 = 0.2391	921.7	22.49
298.15 K, x1 = 0.3502	961.4	39.81
298.15 K, x1 = 0.4409	990.2	63.83
298.15 K, x1 = 0.5592	1023.9	109.9
298.15 K, x1 = 0.6508	1047.2	167.11
298.15 K, x1 = 0.7395	1067.7	243.78
298.15 K, x1 = 0.8502	1090.5	367.28
298.15 K, x1 = 0.9391	1107.1	473.22
298.15 K, x1 = 1	1117.5	545.25
303.15 K, x1 = 0.0816	851.5	6.53
303.15 K, x1 = 0.1604	886.2	10
303.15 K, x1 = 0.2391	917.6	15.42
303.15 K, x1 = 0.3502	957.2	26
303.15 K, x1 = 0.4409	986.1	39.54
303.15 K, x1 = 0.5592	1019.9	66.53
303.15 K, x1 = 0.6508	1043.3	101.16
303.15 K, x1 = 0.7395	1063.9	149.28
303.15 K, x1 = 0.8502	1087	233.88
303.15 K, x1 = 0.9391	1103.7	315.5
303.15 K, x1 = 1	1114.3	369.14
308.15 K, x1 = 0.0816	847.7	5.01
308.15 K, x1 = 0.1604	882.4	6.95
308.15 K, x1 = 0.2391	913.8	9.64
308.15 K, x1 = 0.3502	953.4	15.85
308.15 K, x1 = 0.4409	982.3	23.71
308.15 K, x1 = 0.5592	1016.1	40.36
308.15 K, x1 = 0.6508	1039.6	63.1
308.15 K, x1 = 0.7395	1060.2	95.67
308.15 K, x1 = 0.8502	1083.5	157.61
308.15 K, x1 = 0.9391	1100.4	216.41
308.15 K, x1 = 1	1111.1	257.59
313.15 K, x1 = 0.0816	843.9	3.92
313.15 K, x1 = 0.1604	878.5	5.11
313.15 K, x1 = 0.2391	909.9	6.87
313.15 K, x1 = 0.3502	949.6	10.64
313.15 K, x1 = 0.4409	978.5	15.42
313.15 K, x1 = 0.5592	1012.3	25.7
313.15 K, x1 = 0.6508	1035.8	40.74
313.15 K, x1 = 0.7395	1056.5	63.17
313.15 K, x1 = 0.8502	1079.9	107.2
313.15 K, x1 = 0.9391	1096.9	151.34
313.15 K, x1 = 1	1107.8	185.67
318.15 K, x1 = 0.0816	840.1	3.2
318.15 K, x1 = 0.1604	874.7	3.92
318.15 K, x1 = 0.2391	906.1	5.06
318.15 K, x1 = 0.3502	945.8	7.53
318.15 K, x1 = 0.4409	974.8	10.79
318.15 K, x1 = 0.5592	1008.7	18.71
318.15 K, x1 = 0.6508	1032.2	29.04
318.15 K, x1 = 0.7395	1053.1	46.03
318.15 K, x1 = 0.8502	1076.5	78.87
318.15 K, x1 = 0.9391	1093.7	114.4
318.15 K, x1 = 1	1104.7	140.18
323.15 K, x1 = 0.0816	836.2	2.63
323.15 K, x1 = 0.1604	870.7	3.1
323.15 K, x1 = 0.2391	902.2	3.84
323.15 K, x1 = 0.3502	942	5.55
323.15 K, x1 = 0.4409	971	8.02
323.15 K, x1 = 0.5592	1005	13.49
323.15 K, x1 = 0.6508	1028.7	21.63
323.15 K, x1 = 0.7395	1049.5	36.13
323.15 K, x1 = 0.8502	1073.1	63.1
323.15 K, x1 = 0.9391	1090.4	91.12
323.15 K, x1 = 1	1101.6	110.94

CCCCCCn1cc[n+](C)c1.O=[N+]([O-])[O-] [1-hexyl-3-methylimidazolium nitrate] + CCCCCCCCCO
Settings	mass density [kg/m3]	viscosity [mPa·s]
293.15 K, x1 = 0.0819	856.1	15.74
293.15 K, x1 = 0.1609	882.8	22.23
293.15 K, x1 = 0.2386	908.3	30.27
293.15 K, x1 = 0.3483	942.9	48.53
293.15 K, x1 = 0.4392	970.5	71.12
293.15 K, x1 = 0.5588	1005.4	117.49
293.15 K, x1 = 0.6508	1031.3	177.42
293.15 K, x1 = 0.7394	1055.3	263.63
293.15 K, x1 = 0.8497	1083.9	413.05
293.15 K, x1 = 0.9456	1107.6	630.96
293.15 K, x1 = 1	1120.3	804.17
298.15 K, x1 = 0.0819	852.5	12.59
298.15 K, x1 = 0.1609	879.2	16.67
298.15 K, x1 = 0.2386	904.7	21.93
298.15 K, x1 = 0.3483	939.3	33.81
298.15 K, x1 = 0.4392	967	48.19
298.15 K, x1 = 0.5588	1001.9	79.43
298.15 K, x1 = 0.6508	1027.9	118.3
298.15 K, x1 = 0.7394	1052	175.79
298.15 K, x1 = 0.8497	1080.7	288.4
298.15 K, x1 = 0.9456	1104.5	439.6
298.15 K, x1 = 1	1117.5	545.25
303.15 K, x1 = 0.0819	849	10.19
303.15 K, x1 = 0.1609	875.5	13.18
303.15 K, x1 = 0.2386	901	16.79
303.15 K, x1 = 0.3483	935.6	24.27
303.15 K, x1 = 0.4392	963.3	33.11
303.15 K, x1 = 0.5588	998.3	51.88
303.15 K, x1 = 0.6508	1024.3	76.03
303.15 K, x1 = 0.7394	1048.4	113.24
303.15 K, x1 = 0.8497	1077.3	188.34
303.15 K, x1 = 0.9456	1101.2	294.59
303.15 K, x1 = 1	1114.3	369.14
308.15 K, x1 = 0.0819	845.5	8.41
308.15 K, x1 = 0.1609	872	10.05
308.15 K, x1 = 0.2386	897.4	12.25
308.15 K, x1 = 0.3483	932	16.94
308.15 K, x1 = 0.4392	959.7	22.08
308.15 K, x1 = 0.5588	994.7	32.81
308.15 K, x1 = 0.6508	1020.6	45.71
308.15 K, x1 = 0.7394	1044.8	68.08
308.15 K, x1 = 0.8497	1073.7	116.37
308.15 K, x1 = 0.9456	1097.8	192.31
308.15 K, x1 = 1	1111.1	257.59
313.15 K, x1 = 0.0819	841.9	6.7
313.15 K, x1 = 0.1609	868.3	7.87
313.15 K, x1 = 0.2386	893.7	9.06
313.15 K, x1 = 0.3483	928.3	11.04
313.15 K, x1 = 0.4392	956	13.27
313.15 K, x1 = 0.5588	991	18.92
313.15 K, x1 = 0.6508	1017	26.73
313.15 K, x1 = 0.7394	1041.2	41.3
313.15 K, x1 = 0.8497	1070.2	73.71
313.15 K, x1 = 0.9456	1094.4	136.37
313.15 K, x1 = 1	1107.8	185.67
318.15 K, x1 = 0.0819	838.3	5.28
318.15 K, x1 = 0.1609	864.7	5.78
318.15 K, x1 = 0.2386	890	6.35
318.15 K, x1 = 0.3483	924.6	7.36
318.15 K, x1 = 0.4392	952.3	8.61
318.15 K, x1 = 0.5588	987.4	11.46
318.15 K, x1 = 0.6508	1013.5	15.85
318.15 K, x1 = 0.7394	1037.8	25.39
318.15 K, x1 = 0.8497	1066.9	53.43
318.15 K, x1 = 0.9456	1091.2	101.71
318.15 K, x1 = 1	1104.7	140.18
323.15 K, x1 = 0.0819	834.7	4.15
323.15 K, x1 = 0.1609	861.1	4.25
323.15 K, x1 = 0.2386	886.4	4.41
323.15 K, x1 = 0.3483	921	4.84
323.15 K, x1 = 0.4392	948.6	5.33
323.15 K, x1 = 0.5588	983.8	6.84
323.15 K, x1 = 0.6508	1009.9	9.63
323.15 K, x1 = 0.7394	1034.3	16.2
323.15 K, x1 = 0.8497	1063.5	37.68
323.15 K, x1 = 0.9456	1088	78.73
323.15 K, x1 = 1	1101.6	110.94
